Experimental data from ChEMBL document CHEMBL2429715, “Potent P-glycoprotein inhibition of emodin derivative: synthesis and biological evaluation” (Med Chem Res, 2013).

How the values were obtained:
[1] = system: HCT-116; assay: Growth inhibition of human HCT116 cells at 10 uM after 48 hrs by MTT assay relative to control; assay type: functional; conditions: HCT-116, 48 h, read-out: GI
[2] = biological target: T1, ATP-dependent translocase ABCB1 (Homo sapiens, UniProt P08183); assay: Inhibition of P-glycoprotein in human K562/ADR cells at 20 to 50 uM after 30 mins by rhodamine 123 staining-based fluorescence assay; assay type: cell-based; conditions: 0.5 h
[3] = Growth inhibition of human QSG7701 cells at 10 uM after 48 hrs by MTT assay relative to control; conditions: read-out: GI
[4] = system: K562; assay: Growth inhibition of human K562 cells at 10 uM after 48 hrs by MTT assay relative to control; assay type: functional; conditions: K562, 48 h, read-out: GI
[5] = system: HepG2; assay: Growth inhibition of human HepG2 cells at 10 uM after 48 hrs by MTT assay relative to control; assay type: functional; conditions: HepG2, 48 h, read-out: GI
[6] = biological target: T1, ATP-dependent translocase ABCB1; assay: Inhibition of P-glycoprotein in human K562/ADR cells at 10 to 20 uM after 30 mins by rhodamine 123 staining-based fluorescence assay; assay type: cell-based; conditions: 0.5 h
[7] = biological target: T1, ATP-dependent translocase ABCB1; assay: Inhibition of P-glycoprotein in human K562/ADR cells after 30 mins by rhodamine 123 staining-based fluorescence assay; assay type: cell-based; conditions: 0.5 h

T1 sequence (P08183 whole entry): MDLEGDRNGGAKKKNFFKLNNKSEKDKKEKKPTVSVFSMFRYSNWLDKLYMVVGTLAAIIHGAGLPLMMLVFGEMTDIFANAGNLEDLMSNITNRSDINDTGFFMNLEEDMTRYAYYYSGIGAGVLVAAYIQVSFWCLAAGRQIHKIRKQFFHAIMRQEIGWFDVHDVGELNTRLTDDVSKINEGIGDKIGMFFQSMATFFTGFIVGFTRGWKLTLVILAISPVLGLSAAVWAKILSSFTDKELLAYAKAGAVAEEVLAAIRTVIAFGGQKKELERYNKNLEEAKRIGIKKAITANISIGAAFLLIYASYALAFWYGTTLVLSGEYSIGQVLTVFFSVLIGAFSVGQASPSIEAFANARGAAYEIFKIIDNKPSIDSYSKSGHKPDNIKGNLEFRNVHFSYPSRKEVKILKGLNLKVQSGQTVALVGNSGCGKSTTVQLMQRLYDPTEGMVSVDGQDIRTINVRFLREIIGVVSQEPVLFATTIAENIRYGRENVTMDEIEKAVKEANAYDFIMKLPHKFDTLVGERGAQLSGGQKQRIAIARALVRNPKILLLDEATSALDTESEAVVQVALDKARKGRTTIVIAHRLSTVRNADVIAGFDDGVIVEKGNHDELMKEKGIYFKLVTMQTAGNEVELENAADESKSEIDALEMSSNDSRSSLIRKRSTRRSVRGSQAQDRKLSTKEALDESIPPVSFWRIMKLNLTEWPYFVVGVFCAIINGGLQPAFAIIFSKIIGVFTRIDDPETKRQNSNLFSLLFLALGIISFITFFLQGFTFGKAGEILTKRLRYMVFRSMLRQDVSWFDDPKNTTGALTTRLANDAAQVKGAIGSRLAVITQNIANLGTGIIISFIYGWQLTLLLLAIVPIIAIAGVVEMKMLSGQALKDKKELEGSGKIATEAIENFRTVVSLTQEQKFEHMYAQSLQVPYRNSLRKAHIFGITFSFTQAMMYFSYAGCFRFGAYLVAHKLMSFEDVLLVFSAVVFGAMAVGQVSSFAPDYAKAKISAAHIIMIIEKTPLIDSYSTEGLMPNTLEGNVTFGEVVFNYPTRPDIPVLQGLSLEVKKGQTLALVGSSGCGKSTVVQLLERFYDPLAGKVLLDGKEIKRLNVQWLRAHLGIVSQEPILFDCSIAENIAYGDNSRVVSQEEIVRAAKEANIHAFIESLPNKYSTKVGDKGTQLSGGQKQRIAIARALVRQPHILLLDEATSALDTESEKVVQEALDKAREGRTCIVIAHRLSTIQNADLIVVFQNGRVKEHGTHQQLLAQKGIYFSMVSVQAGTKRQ

| Compound | inhibition of growth at 10 µM [1] [%] | inhibition (INH) [2] | inhibition at 48 h, 10 µM [3] [%] | inhibition of growth at 10 µM [4] [%] | inhibition of growth at 10 µM [5] [%] | inhibition (INH) [6] | inhibition (INH) [7] |
| --- | --- | --- | --- | --- | --- | --- | --- |
| COc1cc(OC)c2c(c1)C(=O)c1cc(CNCCCCN)cc(OC)c1C2=O.Cl.Cl | 27.5 | Not Active | 0.01 | 0.01 | 0.01 |  |  |
| COc1cc(OC)c2c(c1)C(=O)c1cc(CNCCCNCCCN)cc(OC)c1C2=O.Cl | 15.3 |  | 0.01 | 0.01 | 5.85 | Active | Dose-dependent effect |
| COc1ccc(CCN(C)CCCC(C#N)(c2ccc(OC)c(OC)c2)C(C)C)cc1OC (stereo unspecified) [VERAPAMIL] |  |  |  |  |  | Active |  |
| COc1cc(OC)c2c(c1)C(=O)c1cc(CNCCN)cc(OC)c1C2=O.Cl.Cl | 25.4 | Not Active | 2.55 | 0.01 | 0.01 |  |  |
| COc1cc(OC)c2c(c1)C(=O)c1cc(CNCCCN)cc(OC)c1C2=O.Cl.Cl | 31.9 | Not Active | 5.77 | 0.01 | 0.01 |  |  |
| O=C1c2c(O)ccc(O)c2C(=O)c2c(NCCNCCO)ccc(NCCNCCO)c21 [MITOXANTRONE] | 53.2 |  | 59 | 52.1 | 62.7 |  |  |
